From PMC6943423, “Structure-Activity Study of an All-D Antimicrobial Octapeptide D2D” (Molecules, 2019)
Square brackets hold non-standard residues; d marks the D form. Peptide text beside a SMILES is read from it. d1Nal = N[C@H](Cc1cccc2ccccc12)C(=O)O; dNle = CCCC[C@@H](N)C(=O)O; dDap = NC[C@@H](N)C(=O)O

Tested on: human red blood cells
Test: Hemolytic activity
Type: cell-based
Settings: red cells of human, 1 h, 150
Protocol: The percentage of hemolysis at 150 μM was determined for all compounds as previously described. Briefly, two-fold serial dilutions (2.35 to 150 μM) of compounds in PBS were mixed with a 0.5% v/v suspension of fresh human red blood cells (RBC) in the same buffer. After 1 h incubation at 37 °C, plates were centrifuged and aliquots of the supernatants were transferred to clear ELISA plates. Absorbance at 414 nm was determined and normalised with respect to a negative (PBS, 0%) and positive (melittin, 100%) control.

First: CCCC[C@@H](NC(=O)[C@@H](CCCCN)NC(=O)[C@@H](Cc1cccc2ccccc12)NC(=O)[C@@H](Cc1cccc2ccccc12)NC(=O)[C@@H](Cc1ccccc1)NC(=O)[C@@H](Cc1cccc2ccccc12)NC(=O)[C@@H](CCCCN)NC(=O)[C@H](N)CCCCN)C(N)=O [Compound 9, kk(1-nal)f(1-nal)(1-nal)k(nle)-NH2] (H-[dK][dK][d1Nal][dF][d1Nal][d1Nal][dK][dNle]-NH2; N-terminus assumed)
Second: CCCC[C@@H](NC(=O)[C@@H](Cc1cccc2ccccc12)NC(=O)[C@@H](Cc1cccc2ccccc12)NC(=O)[C@@H](CCCCN)NC(=O)[C@@H](Cc1ccccc1)NC(=O)[C@@H](Cc1cccc2ccccc12)NC(=O)[C@@H](CCCCN)NC(=O)[C@H](N)CCCCN)C(N)=O [Compound 17, kk(1-nal)fk(1-nal)(1-nal)(nle)-NH2] (H-[dK][dK][d1Nal][dF][dK][d1Nal][d1Nal][dNle]-NH2; N-terminus assumed)
The “%H (% Hemolysis at 150 µM)” value of the first is lower: 20% for the first, 89% for the second.

Going from `CCCC[C@@H](NC(=O)[C@@H](CCCCN)NC(=O)[C@@H](Cc1cccc2ccccc12)NC(=O)[C@@H](CN)NC(=O)[C@@H](Cc1ccccc1)NC(=O)[C@@H](Cc1cccc2ccccc12)NC(=O)[C@@H](CCCCN)NC(=O)[C@H](N)CCCCN)C(N)=O` [Compound 10, kk(1-nal)f(dap)(1-nal)k(nle)-NH2] (H-[dK][dK][d1Nal][dF][dDap][d1Nal][dK][dNle]-NH2; N-terminus assumed) to `CCCC[C@@H](NC(=O)[C@@H](CCCCN)NC(=O)[C@@H](Cc1cccc2ccccc12)NC(=O)[C@@H](CO)NC(=O)[C@@H](Cc1ccccc1)NC(=O)[C@@H](Cc1cccc2ccccc12)NC(=O)[C@@H](CCCCN)NC(=O)[C@H](N)CCCCN)C(N)=O` [Compound 13, kk(1-nal)fs(1-nal)k(nle)-NH2] (H-[dK][dK][d1Nal][dF][dS][d1Nal][dK][dNle]-NH2; N-terminus assumed), the “%H (% Hemolysis at 150 µM)” value rises from 28% to 29%.

Going from `CCCC[C@@H](NC(=O)[C@@H](CCCCN)NC(=O)[C@@H](Cc1cccc2ccccc12)NC(=O)[C@@H](CCCC)NC(=O)[C@@H](Cc1ccccc1)NC(=O)[C@@H](Cc1cccc2ccccc12)NC(=O)[C@@H](CCCCN)NC(=O)[C@H](N)CCCCN)C(N)=O` [Compound 11, kk(1-nal)f(nle)(1-nal)k(nle)-NH2] (H-[dK][dK][d1Nal][dF][dNle][d1Nal][dK][dNle]-NH2; N-terminus assumed) to `CCCC[C@@H](NC(=O)[C@@H](CCCC)NC(=O)[C@@H](Cc1cccc2ccccc12)NC(=O)[C@@H](CCCCN)NC(=O)[C@@H](Cc1ccccc1)NC(=O)[C@@H](Cc1cccc2ccccc12)NC(=O)[C@@H](CCCCN)NC(=O)[C@H](N)CCCCN)C(N)=O` [Compound 19, kk(1-nal)fk(1-nal)(nle)(nle)-NH2] (H-[dK][dK][d1Nal][dF][dK][d1Nal][dNle][dNle]-NH2; N-terminus assumed), the “%H (% Hemolysis at 150 µM)” value rises from 33% to 56%.

Compared with `CCCC[C@@H](NC(=O)[C@@H](CCCCN)NC(=O)[C@@H](Cc1cccc2ccccc12)NC(=O)[C@@H](Cc1ccccc1)NC(=O)[C@@H](Cc1ccccc1)NC(=O)[C@@H](Cc1cccc2ccccc12)NC(=O)[C@@H](CCCCN)NC(=O)[C@H](N)CCCCN)C(N)=O` [Compound 12, kk(1-nal)ff(1-nal)k(nle)-NH2] (H-[dK][dK][d1Nal][dF][dF][d1Nal][dK][dNle]-NH2; N-terminus assumed), `CCCC[C@@H](NC(=O)[C@@H](Cc1ccccc1)NC(=O)[C@@H](Cc1cccc2ccccc12)NC(=O)[C@@H](CCCCN)NC(=O)[C@@H](Cc1ccccc1)NC(=O)[C@@H](Cc1cccc2ccccc12)NC(=O)[C@@H](CCCCN)NC(=O)[C@H](N)CCCCN)C(N)=O` [Compound 20, kk(1-nal)fk(1-nal)f(nle)-NH2] (H-[dK][dK][d1Nal][dF][dK][d1Nal][dF][dNle]-NH2; N-terminus assumed) is higher in “%H (% Hemolysis at 150 µM)” value: 74% for the first, 91% for the second.

Going from `CCCC[C@@H](NC(=O)[C@@H](CCCCN)NC(=O)[C@@H](Cc1cccc2ccccc12)NC(=O)[C@H](NC(=O)[C@@H](Cc1ccccc1)NC(=O)[C@@H](Cc1cccc2ccccc12)NC(=O)[C@@H](CCCCN)NC(=O)[C@H](N)CCCCN)[C@H](C)O)C(N)=O` [Compound 14, kk(1-nal)ft(1-nal)k(nle)-NH2] (H-[dK][dK][d1Nal][dF][dT][d1Nal][dK][dNle]-NH2; N-terminus assumed) to `CCCC[C@@H](NC(=O)[C@H](NC(=O)[C@@H](Cc1cccc2ccccc12)NC(=O)[C@@H](CCCCN)NC(=O)[C@@H](Cc1ccccc1)NC(=O)[C@@H](Cc1cccc2ccccc12)NC(=O)[C@@H](CCCCN)NC(=O)[C@H](N)CCCCN)[C@H](C)O)C(N)=O` [Compound 22, kk(1-nal)fk(1-nal)t(nle)-NH2] (H-[dK][dK][d1Nal][dF][dK][d1Nal][dT][dNle]-NH2; N-terminus assumed), the “%H (% Hemolysis at 150 µM)” value rises from 28% to 66%.

First: CCCC[C@@H](NC(=O)[C@@H](CCCCN)NC(=O)[C@@H](Cc1cccc2ccccc12)NC(=O)[C@@H](Cc1ccc(O)cc1)NC(=O)[C@@H](Cc1ccccc1)NC(=O)[C@@H](Cc1cccc2ccccc12)NC(=O)[C@@H](CCCCN)NC(=O)[C@H](N)CCCCN)C(N)=O [Compound 15, kk(1-nal)fy(1-nal)k(nle)-NH2] (H-[dK][dK][d1Nal][dF][dY][d1Nal][dK][dNle]-NH2; N-terminus assumed)
Second: CCCC[C@@H](NC(=O)[C@@H](Cc1ccc(O)cc1)NC(=O)[C@@H](Cc1cccc2ccccc12)NC(=O)[C@@H](CCCCN)NC(=O)[C@@H](Cc1ccccc1)NC(=O)[C@@H](Cc1cccc2ccccc12)NC(=O)[C@@H](CCCCN)NC(=O)[C@H](N)CCCCN)C(N)=O [Compound 23, kk(1-nal)fk(1-nal)y(nle)-NH2] (H-[dK][dK][d1Nal][dF][dK][d1Nal][dY][dNle]-NH2; N-terminus assumed)
The “%H (% Hemolysis at 150 µM)” value of the first is lower: 40% for the first, 74% for the second.

Going from `CCCC[C@@H](NC(=O)[C@@H](CCCCN)NC(=O)[C@@H](Cc1cccc2ccccc12)NC(=O)[C@H](NC(=O)[C@@H](Cc1ccccc1)NC(=O)[C@@H](Cc1cccc2ccccc12)NC(=O)[C@@H](CCCCN)NC(=O)[C@H](N)CCCCN)C(C)C)C(N)=O` [Compound 16, kk(1-nal)fv(1-nal)k(nle)-NH2] (H-[dK][dK][d1Nal][dF][dV][d1Nal][dK][dNle]-NH2; N-terminus assumed) to `CCCC[C@@H](NC(=O)[C@H](NC(=O)[C@@H](Cc1cccc2ccccc12)NC(=O)[C@@H](CCCCN)NC(=O)[C@@H](Cc1ccccc1)NC(=O)[C@@H](Cc1cccc2ccccc12)NC(=O)[C@@H](CCCCN)NC(=O)[C@H](N)CCCCN)C(C)C)C(N)=O` [Compound 24, kk(1-nal)fk(1-nal)v(nle)-NH2] (H-[dK][dK][d1Nal][dF][dK][d1Nal][dV][dNle]-NH2; N-terminus assumed), the “%H (% Hemolysis at 150 µM)” value falls from 54% to 50%.

Compared with `CCCC[C@@H](NC(=O)[C@@H](CO)NC(=O)[C@@H](Cc1cccc2ccccc12)NC(=O)[C@@H](CCCCN)NC(=O)[C@@H](Cc1ccccc1)NC(=O)[C@@H](Cc1cccc2ccccc12)NC(=O)[C@@H](CCCCN)NC(=O)[C@H](N)CCCCN)C(N)=O` [Compound 21, kk(1-nal)fk(1-nal)s(nle)-NH2] (H-[dK][dK][d1Nal][dF][dK][d1Nal][dS][dNle]-NH2; N-terminus assumed), `CCCC[C@@H](NC(=O)[C@@H](CCCCN)NC(=O)[C@@H](Cc1cccc2ccccc12)NC(=O)[C@@H](CCCCN)NC(=O)[C@@H](Cc1ccccc1)NC(=O)[C@@H](Cc1cccc2ccccc12)NC(=O)[C@H](N)CCCCN)C(N)=O` [Compound 27, k(1-nal)fk(1-nal)k(nle)-NH2] (H-[dK][d1Nal][dF][dK][d1Nal][dK][dNle]-NH2; N-terminus assumed) is lower in “%H (% Hemolysis at 150 µM)” value: 85% for the first, 49% for the second.

Going from `CCCC[C@@H](NC(=O)[C@@H](Cc1cccc2ccccc12)NC(=O)[C@@H](CCCCN)NC(=O)[C@@H](CCCCN)NC(=O)[C@@H](Cc1ccccc1)NC(=O)[C@@H](Cc1cccc2ccccc12)NC(=O)[C@@H](CCCCN)NC(=O)[C@H](N)CCCCN)C(N)=O` [Compound 25, kk(1-nal)fkk(1-nal)(nle)-NH2] (H-[dK][dK][d1Nal][dF][dK][dK][d1Nal][dNle]-NH2) to `CCCC[C@@H](NC(=O)[C@@H](Cc1cccc2ccccc12)NC(=O)[C@@H](CCCCN)NC(=O)[C@@H](Cc1ccccc1)NC(=O)[C@@H](Cc1cccc2ccccc12)NC(=O)[C@@H](CCCCN)NC(=O)[C@H](N)CCCCN)C(=O)N[C@H](CCCCN)C(N)=O` [Compound 26, kk(1-nal)fk(1-nal)(nle)k-NH2] (H-[dK][dK][d1Nal][dF][dK][d1Nal][dNle][dK]-NH2; N-terminus assumed), the “%H (% Hemolysis at 150 µM)” value falls from 50% to 18%.

Going from `CCCC[C@@H](NC(=O)[C@@H](CCCCN)NC(=O)[C@@H](Cc1cccc2ccccc12)NC(=O)[C@@H](CCCCN)NC(=O)[C@@H](Cc1ccccc1)NC(=O)[C@H](N)Cc1cccc2ccccc12)C(N)=O` [Compound 28, (1-nal)fk(1-nal)k(nle)-NH2] (H-[d1Nal][dF][dK][d1Nal][dK][dNle]-NH2; N-terminus assumed) to `NCCCC[C@@H](N)C(=O)N[C@H](CCCCN)C(=O)N[C@H](Cc1cccc2ccccc12)C(=O)N[C@H](Cc1ccccc1)C(=O)N[C@H](CCCCN)C(=O)N[C@H](Cc1cccc2ccccc12)C(N)=O` [Compound 31, kk(1-nal)fk(1-nal)-NH2] (HELM PEPTIDE1{[dK].[dK].[O=C([C@@H](Cc1cccc2ccccc12)N[*:1])[*:2]].[dF].[dK].[O=C([C@@H](Cc1cccc2ccccc12)N[*:1])[*:2]].[am]}$$$$V2.0; N-terminus assumed), the “%H (% Hemolysis at 150 µM)” value falls from 62% to 20%.

For `NCCCC[C@@H](N)C(=O)N[C@H](CCCCN)C(=O)N[C@H](Cc1cccc2ccccc12)C(=O)N[C@H](Cc1ccccc1)C(=O)N[C@H](CCCCN)C(=O)N[C@H](Cc1cccc2ccccc12)C(=O)N[C@H](CCCCN)C(N)=O` [Compound 30, kk(1-nal)fk(1-nal)k-NH2] (HELM PEPTIDE1{[dK].[dK].[O=C([C@@H](Cc1cccc2ccccc12)N[*:1])[*:2]].[dF].[dK].[O=C([C@@H](Cc1cccc2ccccc12)N[*:1])[*:2]].[dK].[am]}$$$$V2.0; N-terminus assumed), the “%H (% Hemolysis at 150 µM)” value was 11%.
